Measurements taken from US10981896B2, “Indolinone derivatives as inhibitors of maternal embryonic leucine zipper kinase” (BOARD OF REGENTS, THE UNIVERSITY OF TEXAS SYSTEM, priority 2017, dated 2021).
Values joined by “and” are separate entries in the source; they are usually repeats but may differ in a detail not shown here. Equal entries are not always repeated.

How the values were obtained:
AMPK = AMPK (Rattus norvegicus (Rat), UniProt P54645); assay: Selectivity dose-response kinase assay, AMPK; type: biochemical; settings: 100 μM ATP
Excerpt: (§1) CHK1 and NUAK1 were purchased from SignalChem (Vancouver, BC). The NUAK2, CHK, and SAMS peptides were purchased from BioSyn (Lewisville, Tex.). The sequence of CHK and NUAK2 peptides are described elsewhere (Sanchez Y, et al. Science (New York, N.Y.). 1997; 277(5331):1497-1501; Scott J W, et al. Sci Rep. 2015; 5:14436). ERK2, AMPK, CAMKK2, and Ets1 were produced in house as previously described (Waas W F, Dalby K N. The Journal of biological chemistry. 2002; 277(15):12532-12540; Neumann D, et al. Protein Expr Purif. 2003; 30(2):230-237; Waas W F, Dalby K N. Protein Expr Purif. 2001; 23(1):191-197). Apparent KM values for ATP under specific assay conditions were determined using respective experimental conditions in Table 8 with varied ATP (0-1.28 mM). All selectivity dose-response assays were performed in kinase assay buffer (see Inhibitor Library Screen) with 2 mM DTT and 100 μM γ-^32P-ATP with additional conditions listed in Table 8. IC50 and KM^ATP values were subsequently used to calculate Ki (Equation 4). Relative selectivity was determined by comparing Ki^Enzyme/Ki^MELK (termed φ in Table 7). […] Standard error from linear regression data was propagated internally in Prism and taken into account in nonlinear regression to determine IC50 or Ki.

CAMKK2 = CAMKK2 (Homo sapiens (Human), UniProt Q96RR4); assay: Selectivity dose-response kinase assay, CAMKK2; type: biochemical; settings: 100 μM ATP
Excerpt: as §1

SUM-159 cells = assay: Cell proliferation, CellTiter-Blue viability assay, SUM-159; type: cell-based, human; settings: 72 h after treatment
Excerpt: (§2) HCC70, BT-549, and SUM159 human TNBC cell lines and MCF10A human breast epithelial cell line were purchased from American Type Culture Collection. The murine 4T1-Luc TNBC cells were purchased from PerkinElmer. HCC70, BT-549, and 4T1-Luc cells were maintained in RPMI 1640 medium (Life Technologies Inc., Grand Island, N.Y., USA) and MDA-MB-231-LM2 cells in Dulbecco's modified Eagle's medium/F12 medium (Life Technologies Inc., Grand Island, N.Y., USA), both types of medium supplemented with FBS (10%) and antibiotic/antimycotic (1%). SUM159 cells were maintained in Ham's F-12 medium (Life Technologies Inc., Grand Island, N.Y., USA) supplemented with FBS (5%), antibiotic/antimycotic (1%), insulin (5 μg/mL), and hydrocortisone (1 μg/mL). MCF10A cells were maintained in Dulbecco's modified Eagle's medium/F12 medium supplemented with horse serum (10%), antibiotic/antimycotic (1%), insulin (10 μg/mL), EGF (20 ng/mL), cholera toxin (100 ng/mL), and hydrocortisone (500 μg/mL). […]
(§3) Cell proliferation was determined using the CellTiter-Blue viability assay as described previously (Gloeckner H, et al. Journal of immunological methods. 2001; 252(1-2):131-138). […] At 72 h after MELK inhibitor treatment, optical density at 595 nm was determined.

ERK2 = ERK2 (Rattus norvegicus (Rat), UniProt P63086); assay: Selectivity dose-response kinase assay, ERK2; type: biochemical; settings: 100 μM ATP
Excerpt: as §1

CHK1 = CHK1 (Homo sapiens (Human), UniProt O14757); assay: Selectivity dose-response kinase assay, CHK1; type: biochemical; settings: 100 μM ATP
Excerpt: as §1

BT-549 cells = assay: Cell proliferation, CellTiter-Blue viability assay, BT-549; type: cell-based, human; settings: 72 h after treatment
Excerpt: as §2, §3

HCC70 cells = assay: Cell proliferation, CellTiter-Blue viability assay, HCC70; type: cell-based, human; settings: 72 h after treatment
Excerpt: as §2, §3

NUAK1 = NUAK1 (Homo sapiens (Human), UniProt O60285); assay: Selectivity dose-response kinase assay, NUAK1; type: biochemical; settings: 100 μM ATP
Excerpt: as §1

MCF10A cells = assay: Cell proliferation, CellTiter-Blue viability assay, MCF10A; type: cell-based, human; settings: 72 h after treatment
Excerpt: HCC70, BT-549, and SUM159 human TNBC cell lines and MCF10A human breast epithelial cell line were purchased from American Type Culture Collection. The murine 4T1-Luc TNBC cells were purchased from PerkinElmer. HCC70, BT-549, and 4T1-Luc cells were maintained in RPMI 1640 medium (Life Technologies Inc., Grand Island, N.Y., USA) and MDA-MB-231-LM2 cells in Dulbecco's modified Eagle's medium/F12 medium (Life Technologies Inc., Grand Island, N.Y., USA), both types of medium supplemented with FBS (10%) and antibiotic/antimycotic (1%). SUM159 cells were maintained in Ham's F-12 medium (Life Technologies Inc., Grand Island, N.Y., USA) supplemented with FBS (5%), antibiotic/antimycotic (1%), insulin (5 μg/mL), and hydrocortisone (1 μg/mL). MCF10A cells were maintained in Dulbecco's modified Eagle's medium/F12 medium supplemented with horse serum (10%), antibiotic/antimycotic (1%), insulin (10 μg/mL), EGF (20 ng/mL), cholera toxin (100 ng/mL), and hydrocortisone (500 μg/mL). All cell lines used in this study were validated by the Characterized Cell Line Core Facility at MD Anderson Cancer Center by using a short tandem repeat method based on primer extension to detect single base deviations.
Cell proliferation was determined using the CellTiter-Blue viability assay as described previously (Gloeckner H, et al. Journal of immunological methods. 2001; 252(1-2):131-138). Cells were seeded in 96-well plates and treated the next day with MELK inhibitors (0-20 μM). At 72 h after MELK inhibitor treatment, optical density at 595 nm was determined.

MELK = MELK (Homo sapiens (Human), UniProt Q14680); assay: MELK p81-based kinase assay, dose-response (IC50/Ki); type: biochemical
Protocol: MELK and its substrate, Bcl-G were both recombinantly expressed and purified for use in screening assays (See Methods). […] 10 nM MELK 340 and 10 μM Bcl-GL in kinase assay buffer (50 mM HEPES pH 7.5, 100 mM KCl, 0.1 mM EDTA, 0.1 mM EGTA, 10 mM MgCl2, 10 μg/mL BSA) with 10 mM DTT were added to either 10 μM or 1 μM inhibitor aliquoted into 96 well plates (final 1% DMSO). The mixture was incubated at room temperature for 30 minutes prior to initiation of the assay with 40 μM γ-^32P-ATP (100-1000 CPM/pmol). 40 μL aliquots were spotted onto a p81 96 well filter plate (Unifilter, Whatman), quenched, and washed with 75 mM O-phosphoric acid 8 times, followed by a final wash with acetone for drying. Wells were then filled with scintillation fluid, sealed, and quantified using a MicroBeta TriLux liquid scintillation counter (PerkinElmer). Each inhibitor plate was assayed in duplicate, with at least 4 wells without MELK to establish background and at least 4 wells without inhibitor as a negative control. All readings were corrected for background signal based on the average counts from the wells without enzyme. Percent inhibition, defined as [100−(CPM+inhibitor/average CPM of positive controls)*100], was determined first at 10 μM inhibitor. The top 50 inhibitors were then re-screened in duplicate at 1 μM.
At set time points (0.25, 0.5, 1, 1.5, and 2 min for assays containing 10 nM MELK and 1, 2, 4, 6, and 10 min for assays containing 1 nM MELK), 30 μL aliquots were taken from each reaction and spotted onto 2×2 cm squares of p81 paper. Papers were washed 4 times in 75 mM O-phosphoric acid and once in acetone. Labeled protein was quantified by its associated CPM determined on a Packard 1500 scintillation counter at a sigma value of 2. CPM were translated into nmol ^32P incorporated using Equation 1.
Rates in the presence of each concentration of inhibitor were determined by plotting nmol ^32P incorporated vs. time. These rates were normalized to rates obtained without inhibitor, and data were plotted in terms of fractional activity. In most cases, data were fit to Equation 2. If the IC50 approached the amount of enzyme used in the assay, data were re-fit to the equation for tight-binding inhibitors (the Morrison equation, […]). […] Data were transformed as discussed and fit to Equation 3.
IC50 values were used to estimate each inhibitor's Ki using the Cheng-Prusoff relationship for competitive inhibitors (Equation 4).

MELK, sequence (Q14680 1-340): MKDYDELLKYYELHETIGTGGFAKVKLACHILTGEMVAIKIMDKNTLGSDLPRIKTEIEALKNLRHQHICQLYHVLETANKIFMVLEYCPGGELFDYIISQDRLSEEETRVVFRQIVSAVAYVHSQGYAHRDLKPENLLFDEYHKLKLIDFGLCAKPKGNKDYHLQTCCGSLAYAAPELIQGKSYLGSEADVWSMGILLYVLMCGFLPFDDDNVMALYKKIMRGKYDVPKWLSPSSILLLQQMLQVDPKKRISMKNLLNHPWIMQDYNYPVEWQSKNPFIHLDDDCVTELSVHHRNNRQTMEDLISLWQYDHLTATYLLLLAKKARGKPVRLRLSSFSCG
CHK1, sequence (O14757 whole entry): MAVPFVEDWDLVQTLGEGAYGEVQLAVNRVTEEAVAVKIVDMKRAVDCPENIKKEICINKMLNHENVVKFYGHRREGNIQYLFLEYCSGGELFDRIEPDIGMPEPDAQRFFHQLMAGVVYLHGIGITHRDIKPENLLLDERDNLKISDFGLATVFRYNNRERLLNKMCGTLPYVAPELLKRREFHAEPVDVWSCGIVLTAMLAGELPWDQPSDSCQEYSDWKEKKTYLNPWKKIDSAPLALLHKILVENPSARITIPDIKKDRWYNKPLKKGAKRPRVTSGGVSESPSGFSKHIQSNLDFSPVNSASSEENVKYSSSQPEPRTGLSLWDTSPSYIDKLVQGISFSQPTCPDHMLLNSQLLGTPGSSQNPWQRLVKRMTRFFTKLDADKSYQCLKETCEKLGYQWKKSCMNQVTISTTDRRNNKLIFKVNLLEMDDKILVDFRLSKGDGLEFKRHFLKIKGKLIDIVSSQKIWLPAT
ERK2, sequence (P63086 whole entry): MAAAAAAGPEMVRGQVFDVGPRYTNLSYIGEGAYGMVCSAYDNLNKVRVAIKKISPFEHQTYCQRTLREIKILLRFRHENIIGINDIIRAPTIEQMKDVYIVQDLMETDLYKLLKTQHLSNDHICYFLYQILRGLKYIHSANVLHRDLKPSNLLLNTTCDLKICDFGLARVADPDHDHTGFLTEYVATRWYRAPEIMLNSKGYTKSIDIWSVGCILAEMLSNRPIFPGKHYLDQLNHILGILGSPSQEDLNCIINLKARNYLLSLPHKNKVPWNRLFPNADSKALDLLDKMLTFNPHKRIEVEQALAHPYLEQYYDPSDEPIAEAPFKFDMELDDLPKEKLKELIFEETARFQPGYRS
AMPK, sequence (P54645 whole entry, looked up): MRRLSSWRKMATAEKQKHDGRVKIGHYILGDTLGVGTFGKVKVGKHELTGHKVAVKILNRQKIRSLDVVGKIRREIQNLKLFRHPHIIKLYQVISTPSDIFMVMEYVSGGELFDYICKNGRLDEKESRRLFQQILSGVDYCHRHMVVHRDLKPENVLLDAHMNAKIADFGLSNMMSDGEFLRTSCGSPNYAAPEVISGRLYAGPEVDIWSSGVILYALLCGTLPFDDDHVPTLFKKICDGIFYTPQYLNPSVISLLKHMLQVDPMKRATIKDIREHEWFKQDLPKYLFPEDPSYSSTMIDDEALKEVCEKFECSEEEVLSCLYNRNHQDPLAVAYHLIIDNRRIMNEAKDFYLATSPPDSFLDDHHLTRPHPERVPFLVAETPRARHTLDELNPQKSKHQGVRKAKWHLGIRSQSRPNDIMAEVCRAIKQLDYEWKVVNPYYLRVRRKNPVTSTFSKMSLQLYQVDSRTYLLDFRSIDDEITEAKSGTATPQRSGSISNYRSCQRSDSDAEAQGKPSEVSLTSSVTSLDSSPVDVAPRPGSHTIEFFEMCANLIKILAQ
AMPK, sequence (P80386 whole entry partner, looked up): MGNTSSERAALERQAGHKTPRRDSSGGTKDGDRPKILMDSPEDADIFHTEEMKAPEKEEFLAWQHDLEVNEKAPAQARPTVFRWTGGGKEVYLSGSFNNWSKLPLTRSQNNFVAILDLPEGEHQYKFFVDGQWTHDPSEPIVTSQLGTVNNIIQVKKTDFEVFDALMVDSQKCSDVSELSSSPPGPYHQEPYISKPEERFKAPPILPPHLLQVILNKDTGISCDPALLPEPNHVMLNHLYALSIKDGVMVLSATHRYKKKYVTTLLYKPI
AMPK, sequence (P80385 whole entry partner, looked up): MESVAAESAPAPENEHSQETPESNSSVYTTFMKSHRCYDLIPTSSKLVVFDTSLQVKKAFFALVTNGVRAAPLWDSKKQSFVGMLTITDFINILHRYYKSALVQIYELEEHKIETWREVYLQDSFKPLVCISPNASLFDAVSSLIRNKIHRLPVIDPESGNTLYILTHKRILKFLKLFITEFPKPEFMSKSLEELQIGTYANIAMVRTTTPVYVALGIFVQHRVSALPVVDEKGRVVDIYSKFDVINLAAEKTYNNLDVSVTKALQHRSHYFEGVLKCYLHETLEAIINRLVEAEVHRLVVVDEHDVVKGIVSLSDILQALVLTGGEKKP
NUAK1, sequence (O60285 whole entry): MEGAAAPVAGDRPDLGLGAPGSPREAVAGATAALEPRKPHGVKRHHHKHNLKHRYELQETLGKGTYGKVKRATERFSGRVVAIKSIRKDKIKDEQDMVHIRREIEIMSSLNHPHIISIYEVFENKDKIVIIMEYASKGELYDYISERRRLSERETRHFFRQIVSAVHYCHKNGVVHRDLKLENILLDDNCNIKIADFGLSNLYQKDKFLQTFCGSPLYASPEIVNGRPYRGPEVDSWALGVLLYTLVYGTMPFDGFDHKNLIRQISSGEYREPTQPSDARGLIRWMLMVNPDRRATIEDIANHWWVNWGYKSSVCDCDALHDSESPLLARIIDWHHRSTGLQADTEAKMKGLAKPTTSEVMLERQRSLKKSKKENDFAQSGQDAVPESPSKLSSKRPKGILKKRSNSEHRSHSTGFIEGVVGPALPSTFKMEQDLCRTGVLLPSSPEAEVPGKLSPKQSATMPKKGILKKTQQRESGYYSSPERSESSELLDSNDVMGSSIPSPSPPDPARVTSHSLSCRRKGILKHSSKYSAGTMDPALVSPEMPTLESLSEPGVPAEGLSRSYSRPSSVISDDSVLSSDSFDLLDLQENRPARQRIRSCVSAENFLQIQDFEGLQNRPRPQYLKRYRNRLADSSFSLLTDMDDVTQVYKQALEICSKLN
CAMKK2, sequence (Q96RR4 whole entry, species assumed): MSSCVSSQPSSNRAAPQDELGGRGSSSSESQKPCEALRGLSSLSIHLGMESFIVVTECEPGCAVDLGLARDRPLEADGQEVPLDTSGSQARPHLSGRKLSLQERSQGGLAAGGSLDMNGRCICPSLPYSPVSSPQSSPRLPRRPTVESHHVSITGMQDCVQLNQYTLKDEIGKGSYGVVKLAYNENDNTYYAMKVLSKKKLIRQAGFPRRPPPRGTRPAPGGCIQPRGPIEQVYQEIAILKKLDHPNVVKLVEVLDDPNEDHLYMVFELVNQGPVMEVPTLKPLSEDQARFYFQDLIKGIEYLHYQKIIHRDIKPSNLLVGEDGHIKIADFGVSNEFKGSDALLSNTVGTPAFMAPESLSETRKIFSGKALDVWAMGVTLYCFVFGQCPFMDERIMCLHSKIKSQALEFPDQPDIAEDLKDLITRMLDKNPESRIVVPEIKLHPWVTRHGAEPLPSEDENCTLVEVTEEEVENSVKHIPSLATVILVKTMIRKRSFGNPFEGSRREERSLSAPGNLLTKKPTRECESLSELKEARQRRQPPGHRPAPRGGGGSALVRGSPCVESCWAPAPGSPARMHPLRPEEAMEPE

## COC(=O)c1ccc2c(c1)/C(=C(/Nc1ccc(N(C)C(=O)CN3CCN(C)CC3)cc1)c1ccccc1)C(=O)N2 [Compound 17, Methyl(Z)-3-(((4-(N-methyl-2-(4-methylpiperazin-1-yl)acetamido)phenyl)amino)(phenyl)methylene)-2-oxoindoline-5-carboxylate]
AMPK
  Ki: 9.2 ± 1.7 nM
CAMKK2
  Ki: 31 ± 11 nM
SUM-159 cells
  proliferation of SUM-159 cells: clearly impacted
ERK2
  Ki: 3000 ± 1300 nM
CHK1
  Ki: 7 ± 0.17 nM
BT-549 cells
  proliferation of BT-549 cells: clearly impacted
HCC70 cells
  proliferation of HCC70 cells: clearly impacted
NUAK1
  Ki: 11 ± 0.86 nM
MCF10A cells
  proliferation of MCF10A cells: little effect
MCF10A cells; at 10 μM
  proliferation of MCF10A cells: remained largely unaffected

## CN1CCN(CC(=O)N(C)c2ccc(N/C(=C3\C(=O)Nc4ccc(F)cc43)c3ccccc3)cc2)CC1 [Compound 19, (Z)—N-(4-(((5-Fluoro-2-oxoindolin-3-ylidene)(phenyl)methyl)amino)phenyl)-N-methyl-2-(4-methylpiperazin-1-yl)acetamide]
MELK; Ki calculated using Equation 4, [ATP] = 40 μM, KM app (ATP) = 6 μM, read-out: Ki ± SE
  Ki: 3.1 nM and 0.68 nM
MELK; indolinone derivatives, 40 μM ATP, read-out: IC50
  IC50: 24 ± 4.7 nM
SUM-159 cells
  proliferation of SUM-159 cells: inhibited all cell lines
BT-549 cells
  proliferation of BT-549 cells: inhibited all cell lines
HCC70 cells
  proliferation of HCC70 cells: inhibited all cell lines
MCF10A cells
  proliferation of MCF10A cells: inhibited all cell lines
